Source: patent publication US6610741B1, “Skin cosmetic compositions containing a weak carboxylic acid and random copolymers of ethylene oxides and propylene oxides” (Unilever Home & Personal Care USA division of Conopco, Inc., priority 1999, dated 2003)

System: contralateral nasolabial folds of subjects sensitive to glycolic acid
Assay: in-vivo sting test (sting/burn propensity and forced choice)
Parameters: species or system human
Conditions: additive in Base Formula A + 8% glycolic acid, pH 3.8; result in words
From the text: Procedure for in-vivo sting test: This was a randomized, double blind study where each subject evaluated one test formulation and a control formulation or two test formulations on contralateral nasolabial folds. […] A maximum of 20 qualified subjects (minimum of 15) were utilized in each subsequent test. One paired comparison was made on each testing day, with a minimum of 3 days between sting testing throughout the study. Subjects underwent a 15 second Ivory soap wash regime immediately prior to product testing for enhancing sting response. […] Study personnel then applied one test formulation and one control or test formulation simultaneously to the appropriate left/right test site, and gently but thoroughly rubbed in. Subjects compared the stinging potential of the two formulations, over a 7.5 minute period using a self-assessment questionnaire.
Sting/Burn Propensity: The degree of stinging/burning felt on the left and right inner cheek and crease of the nose was evaluated using the following scale at the times indicated in Tables below:
0-no stinging/burning; 1-very slight stinging/burning; 2-slight stinging/burning; 3- moderate stinging/burning; 4-moderately high stinging/burning; 5-high stinging/burning; 6-extreme stinging/burning. […]
Statistical significance was determined at p≦0.1.

Q: With `C[C@]12CCC(=O)C=C1CC[C@@H]1[C@@H]2[C@@H](O)C[C@@]2(C)[C@H]1CC[C@]2(O)C(=O)CO` [hydrocortisone] as the molecule, how does the “effect of additive on sting of Base Formula A containing 8% glycolic acid” value read?
A: neither hydrocortisone nor arabinogalactan reduced the sting
